This experiment deals with T1, human A2a receptor (Homo sapiens, UniProt P29274).
T1 construct: purchased Perkin-Elmer RBHA2AM400UA; host or cells: HEK293 cells (membranes)
In words: A2a competition binding assay, Scintillation Proximity technology. The conditions noted are these: membranes from HEK293 cells expressing human A2a receptor; for pKi: Ki by Cheng-Prusoff equation; for pEC50: 0.5 nM tritiated ligand. How it is done: Binding affinities of compounds of the invention for the human A2a receptor were determined in a competition binding assay using Scintillation Proximity technology. Thus, […] from HEK293 cells expressing the human A2a receptor were incubated with a compound of the invention at concentrations ranging from 3000 nM to 0.15 nM in a reaction mixture containing also 0.5 nM of a tritiated form of 5-amino-7-[2-phenethyl]-2-(furan-2-yl)-7H-pyrazolo[4,3-e][1,2,4]triazolo[1,5-c]pyrimidine (the tritiated compound) and 100 μg of wheat germ agglutin-coated yttrium silicate SPA beads for one hour at room temperature with agitation. The beads were then allowed to settle to the bottom of the wells for 1 hr, after which the membrane-associated radioactivity was determined by scintillation counting in a TopCount microplate reader. Ki values were determined using the Cheng-Prusoff equation.
HEK293 cells expressing the human, rat, dog or monkey adenosine 2a receptor (Purchased from Perkin-Elmer # RBHA2AM400UA).
The Tritiated compound was prepared in-house by MRL Radiochemistry according to published methods.
Wheat germ agglutinin-coated yttrium silicate SPA beads (GE Healthcare #RPNQ0023). Dilute to 25 mg/ml in assay buffer.
Assay Buffer was prepared in house: Dulbecco's calcium and magnesium free phosphate buffered saline+10 mM MgCl2
Adenosine deaminase from calf intestine, 10 mg/2 ml (Roche #10 102 105 001).
A2a antagonist standard (9-chloro-1-(2-furanyl)-[1,2,4]triazolo1,5-c]quinazolin-5-amine from Tocris Bioscience)
Make eight 1:3 serial dilutions in 100% DMSO from a 3 mM compound stock
Transfer 50 nl of compound into a 384-well OptiPlate (Perkin Elmer).
Typically, final concentrations of compound used in the assay ranged from 3000 nM to 0.152 nM.
Dilute a solution of the Tritiated compound to 1.25 nM in assay buffer. This is a 2.5× solution. The final concentration in the assay is 0.5 nM. Calculate the concentration by counting two 5 μl aliquots.
Use 0.25 ug of membrane/well. Dilute membranes to 9.7 μg/ml in assay buffer. Treat with 20 ug/ml adenosine deaminase (ADA) for 15 minutes at room temperature to degrade endogenous adenosine.
Use 100 μg/well wheat germ agglutinin-coated yttrium silicate SPA beads.
Mix ADA-treated membranes and SPA beads together for 30 min prior to assay.
To the Perkin-Elmer Optiplate-384 containing the compound titration add 20 μl of 2.5× solution of the Tritiated compound and 30 μl of the membrane-bead mixture. Incubate for one hour at room temperature with agitation.
Include total binding (assay buffer+1% DMSO) and non-specific binding (CGS15943, 1 μM) wells.
Allow the beads to settle for one hour.
A curve fitting program (i.e., Prism, Activity Base, Chemcart) is used to determine the EC50. The Ki value is calculated using the Cheng-Prusoff equation. Ki=EC50/(1+(radioligand concentration/Kd))

Each structure is given as a SMILES string. pEC50, pKi: −log10 of the molar value.

T1 sequence (P29274 whole entry): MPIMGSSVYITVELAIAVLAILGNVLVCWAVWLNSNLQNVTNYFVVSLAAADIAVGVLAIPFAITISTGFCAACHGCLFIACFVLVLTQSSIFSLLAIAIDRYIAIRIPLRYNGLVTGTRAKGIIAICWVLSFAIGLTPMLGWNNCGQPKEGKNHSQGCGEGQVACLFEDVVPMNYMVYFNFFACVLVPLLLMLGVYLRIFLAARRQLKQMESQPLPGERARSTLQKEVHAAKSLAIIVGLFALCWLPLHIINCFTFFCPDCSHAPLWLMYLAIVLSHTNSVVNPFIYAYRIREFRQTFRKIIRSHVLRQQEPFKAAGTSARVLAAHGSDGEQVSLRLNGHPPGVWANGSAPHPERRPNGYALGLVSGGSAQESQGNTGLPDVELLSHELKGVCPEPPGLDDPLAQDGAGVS

Consider `COC[C@H]1CCC[C@H]1NC(=O)c1nc(C)c(-c2ncco2)nc1N` (stereo in doubt) [Ex-171, 3-amino-N-[(1R,2S)-2-(methoxymethyl)cyclopentyl]-6-methyl-5-(1,3-oxazol-2-yl)pyrazine-2-carboxamide], for which the pKi was 8.99.

Consider `Cc1cccnc1CNC(=O)c1nc(C)c(-c2ncco2)nc1N` [Ex-3, 3-amino-6-methyl-N-((3-methylpyridin-2-yl)methyl)-5-(oxazol-2-yl)pyrazine-2-carboxamide], for which the pEC50 is 8.47.

Consider `Cc1nc(C(=O)NCc2ncccc2C2CC2)c(N)nc1-c1ncco1` [Ex-4, 3-amino-N-((3-cyclopropylpyridin-2-yl)methyl)-6-methyl-5-(oxazol-2-yl)pyrazine-2-carboxamide], for which the pEC50 is 8.34.

`Cc1cccnc1CNC(=O)c1nc(C)c(-c2ncco2)nc1N` [Ex-5, 3-amino-6-methyl-N-[(3-methylpyridin-2-yl)methyl]-5-(1,3-oxazol-2-yl)pyrazine-2-carboxamide] had a pEC50 of 8.33 and a pKi of 9.70.

On to `Cc1nc(C(=O)NCc2ncccc2C2CC2)c(N)nc1-c1ncco1` [Ex-6, 3-amino-N-[(3-cyclopropylpyridin-2-yl)methyl]-6-methyl-5-(1,3-oxazol-2-yl)pyrazine-2-carboxamide], for which the pEC50 was 8.23 and the pKi is 9.65.

On to `Cc1nc(C(=O)N[C@@H]2CCc3cccnc32)c(N)nc1-c1ncco1` [Ex-7A, (R)-3-amino-N-(6,7-dihydro-5H-cyclopenta[b]pyridin-7-yl)-6-methyl-5-(1,3-oxazol-2-yl)pyrazine-2-carboxamide], for which the pKi is 8.29.

As for `Cc1nc(C(=O)N[C@H]2CCc3cccnc32)c(N)nc1-c1ncco1` [Ex-7B, (S)-3-amino-N-(6,7-dihydro-5H-cyclopenta[b]pyridin-7-yl)-6-methyl-5-(1,3-oxazol-2-yl)pyrazine-2-carboxamide], the pKi is 9.41.

In turn, `Cc1nc(C(=O)NCc2cccc3cccnc23)c(N)nc1-c1ncco1` [Ex-9, 3-amino-6-methyl-5-(1,3-oxazol-2-yl)-N-(quinolin-8-ylmethyl)pyrazine-2-carboxamide] showed a pEC50 of 8.68 and a pKi of 9.19.

In the case of `Cc1cccc(CNC(=O)c2nc(C)c(-c3ncco3)nc2N)n1` [Ex-10, 3-amino-6-methyl-N-[(6-methylpyridin-2-yl)methyl]-5-(1,3-oxazol-2-yl)pyrazine-2-carboxamide], the pEC50 is 8.92 and the pKi was 9.24.

Molecule `Cc1nc(C(=O)NCc2c(F)cccc2F)c(N)nc1-c1ncco1` [Ex-11, 3-amino-N-(2,6-difluorobenzyl)-6-methyl-5-(1,3-oxazol-2-yl)pyrazine-2-carboxamide] had a pKi of 9.90.

`Cc1nc(C(=O)NCc2ccno2)c(N)nc1-c1ncco1` [Ex-12, 3-amino-N-(isoxazol-5-ylmethyl)-6-methyl-5-(1,3-oxazol-2-yl)pyrazine-2-carboxamide] had a pKi of 8.01.

In turn, `Cc1nc(C(=O)NCc2ncco2)c(N)nc1-c1ncco1` [Ex-13, 3-amino-6-methyl-5-(1,3-oxazol-2-yl)-N-(1,3-oxazol-2-ylmethyl)pyrazine-2-carboxamide] had a pKi of 8.22.

The molecule `Cc1c[nH]c(CNC(=O)c2nc(C)c(-c3ncco3)nc2N)n1` [Ex-14, 3-amino-6-methyl-N-[(4-methyl-1H-imidazol-2-yl)methyl]-5-(1,3-oxazol-2-yl)pyrazine-2-carboxamide] showed a negative logarithm of the Ki (pKi) of 8.67.

With `Cc1nc(C(=O)NCc2nccn2C)c(N)nc1-c1ncco1` [Ex-15, 3-amino-6-methyl-N-[(1-methyl-1H-imidazol-2-yl)methyl]-5-(1,3-oxazol-2-yl)pyrazine-2-carboxamide], the pKi is 8.90.

Consider `Cc1nc(C(=O)NCc2ncc[nH]2)c(N)nc1-c1ncco1` [Ex-16, 3-amino-N-(1H-imidazol-2-ylmethyl)-6-methyl-5-(1,3-oxazol-2-yl)pyrazine-2-carboxamide], for which the pKi was 8.29.

The molecule `Cc1nc(C(=O)NCc2cncs2)c(N)nc1-c1ncco1` [Ex-17, 3-amino-6-methyl-5-(1,3-oxazol-2-yl)-N-(1,3-thiazol-5-ylmethyl)pyrazine-2-carboxamide] gave a pKi of 7.76.

`Cc1nc(C(=O)NCc2ncccc2C(F)(F)F)c(N)nc1-c1ncco1` [Ex-18, 3-amino-6-methyl-5-(1,3-oxazol-2-yl)-N-{[3-(trifluoromethyl)pyridin-2-yl]methyl}pyrazin-2-carboxamide] showed a pKi of 9.82.

The molecule `Cc1nc(C(=O)NCc2ncccn2)c(N)nc1-c1ncco1` [Ex-19, 3-amino-6-methyl-5-(1,3-oxazol-2-yl)-N-(pyrimidin-2-ylmethyl)pyrazine-2-carboxamide] gave a pKi of 8.56.

For `Cc1nc(C(=O)NCc2ncccc2F)c(N)nc1-c1ncco1` [Ex-20, 3-amino-N-[(3-fluoropyridin-2-yl)methyl]-6-methyl-5-(1,3-oxazol-2-yl)pyrazine-2-carboxamide], the pKi is 9.44.

The molecule `Cc1nc(C(=O)NCc2cccc(N(C)C)n2)c(N)nc1-c1ncco1` [Ex-21, 3-amino-N-{[6-(dimethylamino)pyridin-2-yl]methyl}-6-methyl-5-(1,3-oxazol-2-yl)pyrazine-2-carboxamide] had a pKi of 9.03.

Consider `COc1cccc(CNC(=O)c2nc(C)c(-c3ncco3)nc2N)n1` [Ex-22, 3-amino-N-[(6-methoxypyridin-2-yl)methyl]-6-methyl-5-(1,3-oxazol-2-yl)pyrazine-2-carboxamide], for which the pKi was 9.04.

Consider `Cc1nc(C(=O)NCc2cccc3ccncc23)c(N)nc1-c1ncco1` [Ex-23, 3-amino-N-(isoquinolin-8-ylmethyl)-6-methyl-5-(1,3-oxazol-2-yl)pyrazine-2-carboxamide], for which the pKi was 9.53.

Take `Cc1nc(C(=O)N2CCCc3ccccc32)c(N)nc1-c1ncco1` [Ex-24]: the pKi is 7.11.

For `Cc1nc(C(=O)NCCc2ccccn2)c(N)nc1-c1ncco1` [Ex-25, 3-amino-6-methyl-5-(1,3-oxazol-2-yl)-N-(2-pyridin-2-ylethyl)pyrazine-2-carboxamide], the pKi was 7.79.

With `Cc1nc(C(=O)NCc2ccn(C)n2)c(N)nc1-c1ncco1` [Ex-26, 3-amino-6-methyl-N-[(1-methyl-1H-pyrazol-3-yl)methyl]-5-(1,3-oxazol-2-yl)pyrazine-2-carboxamide], the pKi is 8.77.

Take `Cc1nc(C(=O)NCc2ccncc2)c(N)nc1-c1ncco1` [Ex-27, 3-amino-6-methyl-5-(1,3-oxazol-2-yl)-N-(pyridin-4-ylmethyl)pyrazine-2-carboxamide]: the pKi was 6.92.

Molecule `Cc1nc(C(=O)NCc2cccnc2)c(N)nc1-c1ncco1` [Ex-28, 3-amino-6-methyl-5-(1,3-oxazol-2-yl)-N-(pyridin-3-ylmethyl)pyrazine-2-carboxamide] gave a pKi of 7.84.

`Cc1nc(C(=O)NCc2cc3ccccc3cn2)c(N)nc1-c1ncco1` [Ex-29, 3-amino-N-(isoquinolin-3-ylmethyl)-6-methyl-5-(1,3-oxazol-2-yl)pyrazine-2-carboxamide] had a pKi of 9.47.

Turning to `Cc1nc(C(=O)NCc2ccccc2F)c(N)nc1-c1ncco1` [Ex-30, 3-amino-N-(2-fluorobenzyl)-6-methyl-5-(1,3-oxazol-2-yl)pyrazine-2-carboxamide], the pKi was 9.50.

As to `Cc1nc(C(=O)NCc2cccc(F)c2)c(N)nc1-c1ncco1` [Ex-31, 3-amino-N-(3-fluorobenzyl)-6-methyl-5-(1,3-oxazol-2-yl)pyrazine-2-carboxamide], the pKi was 9.13.

`Cc1nc(C(=O)NCc2ccc(F)cc2)c(N)nc1-c1ncco1` [Ex-32, 3-amino-N-(4-fluorobenzyl)-6-methyl-5-(1,3-oxazol-2-yl)pyrazine-2-carboxamide]: the pKi is 8.82.

The molecule `Cc1nc(C(=O)NCc2ccc3ccccc3n2)c(N)nc1-c1ncco1` [Ex-33, 3-amino-6-methyl-5-(1,3-oxazol-2-yl)-N-(quinolin-2-ylmethyl)pyrazine-2-carboxamide] had a pKi of 8.55.

In the case of `Cc1nc(C(=O)N2CCCC(F)(F)C2)c(N)nc1-c1ncco1` [Ex-34, 3-[(3,3-difluoropiperidin-1-yl)carbonyl]-5-methyl-6-(1,3-oxazol-2-yl)pyrazin-2-amine], the pKi is 6.07.

Broadly, the pKi is the negative decadic logarithm of the Ki, by convention in mol/L. A word on the pEC50: it is −log10 of the EC50, conventionally taken in molar units. Higher therefore signals a low EC50.

For the origin of these results see patent publication US10472347B2, “Aminopyrazine compounds with A2A antagonist properties” (Merck Sharp & Dohme Corp., priority 2014, dated 2019).
